{"source": "paper PMC10498670", "key": {"[1]": {"assay": "Multicomponent nitrilium-trapping macrocyclisation: Pro NH + EtCHO (1.5 equiv) gives an iminium, Pinc (N-isocyanoimino)triphenylphosphorane (1.2 equiv) adds, C-terminal benzoate traps the nitrilium, then aza-Wittig to the 1,3,4-oxadiazole (18 h)", "conditions": "the molecule shown is the open-chain precursor, 1:1 DCE/MeCN, 25.0 mM, 50.0 °C, 12 steps"}, "[2]": {"assay": "Multicomponent nitrilium-trapping macrocyclisation: Pro NH + EtCHO (1.5 equiv), Pinc2 (ethyl 2-isocyano-2-(triphenylphosphanylidene)acetate, 1.5 equiv), AcOH (0.1 equiv); carboxylate traps the nitrilium, then Wittig to the oxazole (18 h)", "conditions": "the molecule shown is the open-chain precursor, 1:1 DCE/MeCN, 25.0 mM, 50.0 °C, 12 steps"}}}
{"smiles": "Cc1c(NC(=O)CNC(=O)[C@H](CC(C)C)NC(=O)[C@H](C)NC(=O)CNC(=O)[C@@H]2CCCN2)cccc1C(=O)O", "note": "[H-Pro-Gly-Ala-Leu-Gly-(3-amino-2-methylbenzoic acid)-OH]", "values": [{"measurement": "ring closure, overall yield", "setting": "[1]; 23-membered ring", "result": 25, "unit": "%"}, {"measurement": "ring closure, overall yield", "setting": "[2]; 23-membered ring, 18.0 h", "result": 23, "unit": "%"}]}
{"smiles": "CC(C)C[C@H](NC(=O)[C@H](C)NC(=O)CNC(=O)[C@@H]1CCCN1)C(=O)NCC(=O)Nc1ccc(C(=O)O)cc1", "note": "[H-Pro-Gly-Ala-Leu-Gly-(4-aminobenzoic acid)-OH]", "values": [{"measurement": "ring closure, overall yield", "setting": "[1]; 24-membered ring", "result": 18, "unit": "%"}, {"measurement": "ring closure, overall yield", "setting": "[2]; 24-membered ring", "result": 0, "unit": "%"}]}
{"smiles": "CC(C)C[C@H](NC(=O)CNC(=O)[C@@H]1CCCN1)C(=O)N[C@@H](CC(=O)OC(C)(C)C)C(=O)N[C@H](C(=O)Nc1cccc(C(=O)O)c1)[C@@H](C)OC(C)(C)C", "note": "[H-Pro-Gly-Leu-Asp(OtBu)-Thr(OtBu)-(3-aminobenzoic acid)-OH]", "values": [{"measurement": "ring closure, overall yield", "setting": "[1]; 23-membered ring", "result": 27, "unit": "%"}, {"measurement": "ring closure, overall yield", "setting": "[2]; 23-membered ring, 18.0 h", "result": 21, "unit": "%"}]}
{"smiles": "CC(C)C[C@H](NC(=O)[C@H](C)NC(=O)CNC(=O)[C@@H]1CCCN1)C(=O)NCC(=O)Nc1ccccc1C(=O)O", "note": "[H-Pro-Gly-Ala-Leu-Gly-(2-aminobenzoic acid)-OH]", "values": [{"measurement": "ring closure, overall yield", "setting": "[1]; 22-membered ring", "result": 15, "unit": "%"}, {"measurement": "ring closure, overall yield", "setting": "[2]; 22-membered ring, 18.0 h", "result": 0, "unit": "%"}]}
{"smiles": "CC(C)C[C@H](NC(=O)[C@H](C)NC(=O)CNC(=O)[C@@H]1CCCN1)C(=O)NCC(=O)Nc1cccc(C(=O)O)c1", "note": "[H-Pro-Gly-Ala-Leu-Gly-(3-aminobenzoic acid)-OH]", "values": [{"measurement": "ring closure, overall yield", "setting": "[1]; 23-membered ring", "result": 38, "unit": "%"}, {"measurement": "ring closure, overall yield", "setting": "[2]; 23-membered ring, 18.0 h", "result": 35, "unit": "%"}]}
{"smiles": "CC(C)C[C@H](NC(=O)[C@H](C)NC(=O)CNC(=O)[C@@H]1CCCN1)C(=O)NCC(=O)Nc1ccc(C(=O)O)c(Cl)c1", "note": "[H-Pro-Gly-Ala-Leu-Gly-(4-amino-2-chlorobenzoic acid)-OH]", "values": [{"measurement": "ring closure, overall yield", "setting": "[1]; 24-membered ring", "result": 17, "unit": "%"}, {"measurement": "ring closure, overall yield", "setting": "[2]; 24-membered ring", "result": 0, "unit": "%"}]}
{"smiles": "Cc1cccc(NC(=O)CNC(=O)[C@H](CC(C)C)NC(=O)[C@H](C)NC(=O)CNC(=O)[C@@H]2CCCN2)c1C(=O)O", "note": "[H-Pro-Gly-Ala-Leu-Gly-(2-amino-6-methylbenzoic acid)-OH]", "values": [{"measurement": "ring closure, overall yield", "setting": "[1]; 22-membered ring", "result": 18, "unit": "%"}, {"measurement": "ring closure, overall yield", "setting": "[2]; 22-membered ring, 18.0 h", "result": 0, "unit": "%"}]}
